Experimental findings from patent US5208156A, “Esterase purified from serratia marcescens SR41 (FERM BP-No. 487)” (priority 1990, dated 1993) are described below.

The assay concerns the target T1, Serratia marcescens Sr41 (FERM BP-No. 487) esterase, purified esterase of Example 2 (Serratia marcescens, UniProt Q59932).
T1 construct: 62 kDa by SDS-PAGE; N-terminus XIFSYKDLDENA
T1 sequence (Q59932 2-613): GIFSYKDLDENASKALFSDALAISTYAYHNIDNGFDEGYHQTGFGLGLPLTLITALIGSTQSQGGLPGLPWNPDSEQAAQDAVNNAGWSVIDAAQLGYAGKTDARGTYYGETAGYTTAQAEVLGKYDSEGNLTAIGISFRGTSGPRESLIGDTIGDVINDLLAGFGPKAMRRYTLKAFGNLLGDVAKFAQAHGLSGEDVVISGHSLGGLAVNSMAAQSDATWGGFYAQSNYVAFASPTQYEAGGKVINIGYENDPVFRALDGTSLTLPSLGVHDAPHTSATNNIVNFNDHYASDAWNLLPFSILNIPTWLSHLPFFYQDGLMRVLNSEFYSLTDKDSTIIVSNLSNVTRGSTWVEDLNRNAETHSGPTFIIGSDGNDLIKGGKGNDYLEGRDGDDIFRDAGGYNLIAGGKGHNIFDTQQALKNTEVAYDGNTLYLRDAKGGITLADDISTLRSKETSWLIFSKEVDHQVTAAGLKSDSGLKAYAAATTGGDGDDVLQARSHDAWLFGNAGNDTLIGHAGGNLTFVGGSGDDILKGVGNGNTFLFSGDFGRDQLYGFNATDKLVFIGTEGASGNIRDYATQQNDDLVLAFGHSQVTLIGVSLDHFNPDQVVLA
The experiment in a line: biochemical. The note with it: for Relative activity: 1 mM inhibitor added to enzyme solution, activity with no addition = 100, olive oil substrate, pH 8.0, 37° C. The protocol:
A mixture of 225 ml of 2% polyvinyl alcohol (Poval 117, manufactured by Kurare Co., Ltd.) and 75 ml of olive oil was emulsified by stirring at 14,500 rpm at 5°-10° C. for 10 minutes. 5.0 ml of the olive oil-emulsion thus-obtained and 4.0 ml of 0.25M Tris-HCl buffer (pH 8.0, containing 2.5 mM calcium chloride) were preincubated at 37° C. for 10 minutes. One ml of an enzyme solution was added thereto to initiate enzymatic reaction. After the mixture was incubated at 37° C. for 20 minutes, 20 ml of a mixture of acetone-ethanol (1:1) were added to the reaction mixture to stop the enzymatic reaction. The mixture was titrated with 0.05N sodium hydroxide solution by using phenolphthalein as the indicator. A blank solution was prepared in the same manner as above except that acetone-ethanol (1:1) is added to the substrate solution before addition of the enzyme solution. Said blank solution was titrated in the same manner as above. The amount of enzyme which liberated one μmole of fatty acid per minute was defined as one unit (U).
The effect of metal ions or known enzyme-inhibitors on the purified esterase obtained in Example 2 was investigated as follows: […]

On to `O=C(O)CN(CCN(CC(=O)O)CC(=O)O)CC(=O)O` [Ethylenediaminetetraacetic acid], for which the “Inhibition of esterase activity” value is recorded as “completely inhibited”. For the same compound, the activity at 1000 µM (20 min, pH 8, read-out: Relative activity) turned out to be 0%. In the case of `O=S(=O)(F)Cc1ccccc1` [Phenylmethylsulfonyl fluoride], under “20 min”, the Relative activity is listed as 100%. On the same count and under the same terms, the figure for `O=C(O)c1cc[c]([Hg][Cl])cc1` [p-Chloromercury benzoate] is 86%.
